Results on 19 compounds are retold here after patent US20200055839A1 (priority 2017, published 2020).

The term EC50 denotes the concentration needed to bring the measured effect to its halfway point. A lower EC50 goes with an effect from little substance.

The test relates to NL-RLuc virus. The test is described as follows: Inhibition of HIV replication (NL-RLuc virus, luciferase readout in MT-2 cells). As to conditions: Human immunodeficiency virus 1, MT2, 120 h, MT-2 cells infected with NL-RLuc virus, 5 days of incubation, 10% FBS, at least 2 experiments. The format is cell-based. The text has this:
Inhibition of HIV Replication:
A recombinant NL-RLuc proviral clone was constructed in which a section of the nef gene form NL4-3 was replaced with the Renilla Luciferase gene. This virus is fully infectious and can undergo multiple cycles of replication in cell culture. In addition, the luciferous reporter provides a simple and easy method for quantitating the extent of virus growth and consequently, the antiviral activity of test compounds. The plasmid pNLRLuc contains the proviral NL-Rluc DNA cloned into pUC18 at the PvuII site. The NL-RLuc virus was prepared by transfection of 293T cells with the plasmid pNLRLuc. Transfections were performed using the LipofectAMINE PLUS kit form Invitrogen (Carlsbad, Calif.) according to the manufacturer and the virus generated was titered in MT-2 cells. For susceptibility analyses, the titrated virus was used to infect MT-2 cells in the presence of compound, and after 5 days of incubation, cells were processed and quantitated for virus growth by the amount of expressed luciferase. Assay media was RPMI 1640 supplemented with 10% heat inactivated fetal bovine serum (FBS), 100 units/ml penicillin G/100 units/ml streptomycin, 10 mM HEPES buffer pH 7.55 and 2 mM L-glutamine. The results form at least 2 experiments were used to calculate the EC50 values. Luciferase was quantitated using the Dual Luciferase kit form Promega (Madison, Wis.). Susceptibility of viruses to compounds was determined by incubation in the presence of serial dilutions of the compound. The 50% effective concentration (EC50) was calculated by using the exponential form of the median effect equation where (Fa)=1/[1+(ED50/drug conc.)^m](Johnson V A, Byington R T. Infectivity Assay. In Techniques in HIV Research. ed. Aldovini A, Walker B D. 71-76. New York: Stockton Press. 1990).
As for `COc1c(F)cccc1-c1cnc(C)c([C@H](OC(C)(C)C)C(=O)O)c1N1CCC(C)(C)CC1` [Example 166, (2S)-2-(tert-Butoxy)-2-[4-(4,4-dimethylpiperidin-1-yl)-5-(3-fluoro-2-methoxyphenyl)-2-methylpyridin-3-yl]acetic acid], it took 11 nM to reach a half-maximal effect (EC50).

`Cc1ncc(-c2ccc(OCCc3ccc(F)cc3)c(C#N)c2)c(N2CCC(C)(C)CC2)c1[C@H](OC(C)(C)C)C(=O)O` [Example 256, (S)-2-(tert-Butoxy)-2-(5-(3-cyano-4-(4-fluorophenethoxy)phenyl)-4-(4,4-dimethylpiperidin-1-yl)-2-methylpyridin-3-yl)acetic acid]: the midpoint of the response, the EC50, lay at 0.8 nM. With `Cc1nc(Nc2cccnc2F)c(-c2ccc(OCCc3ccc(F)cc3)cc2)c(N2CCC(C)(C)CC2)c1[C@H](OC(C)(C)C)C(=O)O` [Example 90, (S)-2-(tert-Butoxy)-2-(4-(4,4-dimethylpiperidin-1-yl)-5-(4-(4-fluorophenethoxy)phenyl)-6-((2-fluoropyridin-3-yl)amino)-2-methylpyridin-3-yl)acetic acid] the figure was 5 nM; with `Cc1ncc(-c2cnc(OCCc3cc(F)cc(F)c3)c(F)c2)c(N2CCC(C)(C)CC2)c1[C@H](OC(C)(C)C)C(=O)O` [Example 390, (2S)-2-(tert-butoxy)-2-{6′-[2-(3,5-difluorophenyl)ethoxy]-4-(4,4-dimethylpiperidin-1-yl)-5′-fluoro-6-methyl-[3,3′-bipyridine]-5-yl}acetic acid], 2 nM.

Turning to `COc1cccc(COc2ccc(-c3cnc(C)c([C@H](OC(C)(C)C)C(=O)O)c3N3CCC(C)(C)CC3)nc2)c1` [Example 340, (2S)-2-(tert-butoxy)-2-[4′-(4,4-dimethylpiperidin-1-yl)-5-[(3-methoxyphenyl)methoxy]-6′-methyl-[2,3′-bipyridine]-5′-yl]acetic acid], the midpoint of the response, the EC50, lay at 2 nM. With `Cc1nc(NC2CCN(S(C)(=O)=O)CC2)c(-c2ccc(OCCc3ccc(F)cc3)cc2)c(N2CCC(C)(C)CC2)c1[C@H](OC(C)(C)C)C(=O)O` [Example 99, (S)-2-(tert-Butoxy)-2-(4-(4,4-dimethylpiperidin-1-yl)-5-(4-(4-fluorophenethoxy)phenyl)-2-methyl-6-((1-(methylsulfonyl)piperidin-4-yl)amino)pyridin-3-yl)acetic acid] the figure was 0.6 nM.

Turning to `CCCOc1ccc(-c2cnc(C)c([C@H](OC(C)(C)C)C(=O)O)c2N2CCC(C)(C)CC2)nc1` [Example 318, (2S)-2-(tert-butoxy)-2-[4′-(4,4-dimethylpiperidin-1-yl)-6′-methyl-5-propoxy-[2,3′-bipyridine]-5′-yl]acetic acid], the EC50 was 3 nM. With `Cc1ncc(-c2ccc(CCC(C)C)nc2)c(N2CCC(C)(C)CC2)c1[C@H](OC(C)(C)C)C(=O)O` [Example 420, (S)-2-(tert-Butoxy)-2-(4-(4,4-dimethylpiperidin-1-yl)-6′-isopentyl-6-methyl-[3, 3′-bipyridin]-5-yl)acetic acid] the figure was 13 nM; with `CCOc1c(C(F)(F)F)ccc(-c2cnc(C)c([C@H](OC(C)(C)C)C(=O)O)c2N2CCC(C)(C)CC2)c1F` [Example 173, (2S)-2-(tert-butoxy)-2-[4-(4,4-dimethylpiperidin-1-yl)-5-[3-ethoxy-2-fluoro-4-(trifluoromethyl)phenyl]-2-methylpyridin-3-yl]acetic acid], 21 nM; with `CCC(C)COc1ccc(-c2cnc(C)c([C@H](OC(C)(C)C)C(=O)O)c2N2CCC(C)(C)CC2)nc1` (stereo partly drawn) [Example 360, (2S)-2-(tert-butoxy)-2-[4′-(4,4-dimethylpiperidin-1-yl)-6′-methyl-5-(2-methylbutoxy)-[2,3′-bipyridine]-5′-yl]acetic acid], 0.8 nM. With `Cc1ncc(-c2ccc(OCCc3c(Cl)cccc3Cl)cc2)c(N2CCC(C)(C)CC2)c1[C@H](OC(C)(C)C)C(=O)O` [Example 366, (2S)-2-(tert-butoxy)-2-(5-{4-[2-(2,6-dichlorophenyl)ethoxy]phenyl}-4-(4,4-dimethylpiperidin-1-yl)-2-methylpyridin-3-yl)acetic acid] the figure was 5 nM; with `Cc1nc(NC2CCOCC2)c(-c2ccc(OCCc3ccc(F)cc3)cc2)c(N2CCC(C)(C)CC2)c1[C@H](OC(C)(C)C)C(=O)O` [Example 24, (S)-2-(tert-Butoxy)-2-(4-(4,4-dimethylpiperidin-1-yl)-5-(4-(4-fluorophenethoxy)phenyl)-2-methyl-6-((tetrahydro-2H-pyran-4-yl)amino)pyridin-3-yl)acetic acid], 2 nM; with `Cc1ncc(-c2ccc(OCCc3c(F)cc(F)cc3F)cn2)c(N2CCC(C)(C)CC2)c1[C@H](OC(C)(C)C)C(=O)O` [Example 298, (2S)-2-(tert-butoxy)-2-[4′-(4,4-dimethylpiperidin-1-yl)-6′-methyl-5-[2-(2,4,6-trifluorophenyl)ethoxy]-[2,3′-bipyridine]-5′-yl]acetic acid], 1 nM.

Compound `Cc1ncc(-c2cnc(O[C@@H](C)Cc3ccccc3)c(F)c2)c(N2CCC(C)(C)CC2)c1[C@H](OC(C)(C)C)C(=O)O` [Example 379, (2S)-2-(tert-butoxy)-2-[4-(4,4-dimethylpiperidin-1-yl)-5′-fluoro-6-methyl-6′-{[(2S)-1-phenylpropan-2-yl]oxy}-[3,3′-bipyridine]-5-yl]acetic acid] yielded a concentration for a half-maximal effect (EC50) of 2 nM. With `Cc1ncc(-c2ncccn2)c(N2CCC(C)(C)CC2)c1[C@H](OC(C)(C)C)C(=O)O` [Example 187, (2S)-2-(tert-Butoxy)-2-[4-(4,4-dimethylpiperidin-1-yl)-2-methyl-5-(pyrimidin-2-yl)pyridin-3-yl]acetic acid] the figure was 107 nM; with `Cc1cccc(Cl)c1COc1ccc(-c2cnc(C)c([C@H](OC(C)(C)C)C(=O)O)c2N2CCC(C)(C)CC2)nc1` [Example 283, (S)-2-(tert-Butoxy)-2-(5-((2-chloro-6-methylbenzyl)oxy)-4′-(4,4-dimethylpiperidin-1-yl)-6′-methyl-[2, 3′-bipyridin]-5′-yl)acetic acid], 3 nM.

With `CC1(C)CCN(c2c(-c3ccc(OCCc4ccc(F)cc4)cc3)cnc(CO)c2[C@H](OC(C)(C)C)C(=O)O)CC1` [Example 8, (S)-2-(tert-Butoxy)-2-(4-(4,4-dimethylpiperidin-1-yl)-5-(4-(4-fluorophenethoxy)phenyl)-2-(hydroxymethyl)pyridin-3-yl)acetic acid], the midpoint of the response, the EC50, lay at 3 nM. The compound `Cc1ncc(-c2ccc(OCCCCc3ccccc3)cn2)c(N2CCC(C)(C)CC2)c1[C@H](OC(C)(C)C)C(=O)O` [Example 341, (2S)-2-(tert-butoxy)-2-[4′-(4,4-dimethylpiperidin-1-yl)-6′-methyl-5-(4-phenylbutoxy)-[2,3′-bipyridine]-5′-yl]acetic acid] yielded an EC50 of 3 nM. As to `Cc1nc(Nc2cnn(C)c2)c(-c2ccc(OCCc3ccc(F)cc3)cc2)c(N2CCC(C)(C)CC2)c1[C@H](OC(C)(C)C)C(=O)O` [Example 87, (S)-2-(tert-Butoxy)-2-(4-(4,4-dimethylpiperidin-1-yl)-5-(4-(4-fluorophenethoxy)phenyl)-2-methyl-6-((1-methyl-H-pyrazol-4-yl)amino)pyridin-3-yl)acetic acid], the EC50 is 2 nM.
